The record followed here is PubChem BioAssay (NCI).

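Five concentrations, 48 hours, 96-well plates. Definition used: TGI = concentration required for complete inhibition of growth.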

Some test systems named below: KM20L2 colon; P388 leukemia; DMS 114 small cell lung; HOP-18 NSCLC; M19-MEL melanoma; P388/ADR leukemia; SN12K1 renal; LXFL 529 NSCLC.
What all share (test): NCI tumour cell line growth inhibition, 48 h

As for `O=C1C(CO)=C[C@H](O)[C@H]2O[C@@H]12`, the TGI was > 625 µM in the assay on KM20L2 colon; 195 µM in the assay on P388 leukemia; 296 µM in the assay on DMS 114 small cell lung; > 625 µM with HOP-18 NSCLC; 292 µM in the assay on M19-MEL melanoma; 225 µM in the assay on P388/ADR leukemia. In addition, the TGI in the assay with SN12K1 renal is 278 µM.
Take `c1ccc2c(c1)NCc1cc3ccccc3nc1O2`: the TGI in the assay on P388 leukemia, in the assay with DMS 114 small cell lung, with HOP-18 NSCLC, with M19-MEL melanoma, with P388/ADR leukemia and in the assay on SN12K1 renal was > 100 µM throughout.
On to `C/C(=N\NC(=S)N1CCC(N2CCCCC2)CC1)c1ccccn1`, for which the TGI is 14.2 µM with KM20L2 colon; 8.86 µM in the assay on DMS 114 small cell lung; 14.5 µM in the assay on HOP-18 NSCLC; 12.6 µM in the assay with M19-MEL melanoma; 13.6 µM with LXFL 529 NSCLC.
